In PubChem BioAssay (NCI) one finds TGI and GI50 data, which are given here for 27 compounds.

Where “and” joins values, the source holds several entries; their conditions need not be identical. Equal values may be shown once.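 Test compounds were applied to cells in 96-well plates for 48 hours at 5 doses. GI50: concentration for 50% inhibition of growth. TGI: total growth inhibition.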

What all share (assay): growth of human tumour cells (NCI), 48 h
Experiment [1] deals with OVCAR-4 ovarian.
The subject of experiment [2] is NCI-H226 lung.
Experiment [3] deals with T-47D breast.
For experiment [4], the system named is MDA-MB-231 breast.
The subject of experiment [5] is SN12C renal.
Experiment [6] deals with BT-549 breast.
Experiment [7] has as its system HOP-92 NSCLC.
Experiment [8] deals with SK-MEL-5 melanoma.
Experiment [9] relates to LOX IMVI melanoma.
Experiment [10] relates to MDA-N.

`COc1cc2[nH]c(-c3ccccc3)cc(=O)c2cc1OC`: the TGI in experiment [1] was over 100 µM; in experiment [2] it was 53.6 µM; in experiment [3], over 100 µM; in experiment [4], over 87.3 µM; in [5], over 100 µM; in experiment [6], over 100 µM. The TGI in experiment [7] is over 100 µM; in experiment [8], 54.4 µM; in [9], over 100 µM; in experiment [10] it was 6.44 µM.

Regarding `COc1ccc2c(c1)CC[C@@H]1[C@@H]2CC[C@]2(C)/C(=N/OCCN3CCCCC3)CC[C@@H]12`, the TGI in experiment [1] was determined as 27.2 µM; in experiment [2], 18.7 µM; in experiment [3], 19.2 µM; in [4], 23.6 µM; in [5], 17 µM; in experiment [6], 28.7 µM. Further, the TGI was determined as 14.4 µM in [7], 6.27 µM in [8], 3.8 µM in [9] and 5.9 µM in [10].

Consider `Fc1cccc2nc(-c3ccccc3)cc(OCc3ccccc3)c12`, for which the TGI in [1], in experiment [2], in experiment [3], in [4], in [5] and in experiment [6] was over 100 µM in each case. In addition, the TGI in experiment [8], in [9] and in experiment [10] was over 100 µM throughout.

Take `O=C1CSC2(CCN(CCCN3c4ccccc4Sc4ccc(Cl)cc43)CC2)N1`: the TGI in experiment [1] is 23.1 µM; in [2], 40.7 µM; in experiment [3], 15.6 µM; in [4], 18.8 µM; in experiment [5], 22.7 µM; in [6] it was 26.1 µM. For the same compound, the TGI in experiment [7] amounted to 20.3 µM; in experiment [8], 23 µM; in experiment [9] it was 16.6 µM; in experiment [10] it was 23.6 µM.

For the compound `COc1ccc(-c2cn3c(n2)sc2cc(C)ccc23)cc1`, the TGI in experiment [1] is 83.8 µM; in experiment [2] it was 62.2 µM; in [3] it was over 100 µM; in experiment [4] it was 42.4 µM; in experiment [5] it was 88.7 µM; in experiment [6], 87.4 µM. The TGI was 20.8 µM in [7], 14.3 µM in [8], over 100 µM in experiment [9] and 58.4 µM in experiment [10].

In the case of `O=C1/C(=C/c2cccs2)N=C(c2ccccc2)N1C1Nc2cc3c(cc2S1)NC(N1C(=O)/C(=C/c2cccs2)N=C1c1ccccc1)S3` (stereo unspecified), the TGI in experiment [1] was 96.9 µM; in [2], 48.3 µM; in experiment [3], over 100 µM; in experiment [4] it was over 100 µM; in experiment [6] it was 35.1 µM; in experiment [7], over 100 µM. Also, the TGI in experiment [8] was determined as 37.4 µM; in [9] it was 33.7 µM; in [10], 41 µM.

For the compound `NC1CCC(c2cc3ccccc3s2)(N2CCCCC2)CC1` (stereo unspecified), the TGI came out at 15.2 µM in [1]; 43.7 µM in [2]; 5.51 µM in experiment [3]; 12.9 µM in [4]; 3.1 µM in experiment [5]; 3.08 µM in [6]. For the same compound, the TGI amounted to 5.15 µM in [7], 4.16 µM in [8], 2.84 µM in experiment [9] and 3.2 µM in experiment [10].

On to `O=C(CSC1=NCCN1)c1ccccc1`, for which the TGI in experiment [1], in experiment [2], in experiment [3], in [4], in [5] and in experiment [6] was over 100 µM each time. Besides, the TGI in experiment [7], in experiment [8], in experiment [9] and in experiment [10] was over 100 µM each time.

Regarding `COC(=O)/C=C1/OC(c2ccccc2)=C(Cl)C1=O`, the TGI in experiment [1] is 39 µM; in experiment [2], over 84.6 µM; in [3], over 56.6 µM; in experiment [4] it was 36 µM; in experiment [5], over 60.1 µM; in [6], 40.3 µM. The TGI worked out at 42.7 µM in experiment [7], 28.7 µM in experiment [8], 26.8 µM in [9] and 43 µM in experiment [10].

`COc1ccc(CN=CN/C(C#N)=C(\N)C#N)cc1OC`: the TGI in [1], in experiment [2], in experiment [3], in experiment [4], in experiment [5] and in experiment [6] was over 100 µM each time. Further, the TGI in [8], in [9] and in experiment [10] was over 100 µM each time.

As for `COc1cccc(-c2cc(=O)c3cc(C)cnc3[nH]2)c1`, the TGI was over 100 µM in [1]; 0.339 µM in experiment [2]; over 100 µM in [3]; over 100 µM in experiment [4]; over 33.9 µM in experiment [5]; over 100 µM in [6]. Besides, the TGI is 3.17 µM in [8], over 100 µM in experiment [9] and 0.0213 µM in experiment [10].

Turning to `C=C[C@H]1CN2CC[C@H]1C[C@@H]2[C@@H](O)c1ccnc2ccccc12`, the TGI in experiment [1], in [2], in [3], in experiment [4], in experiment [5] and in [6] was over 100 µM each time. In addition, the TGI in [8], in [9] and in [10] was over 100 µM in each case.

On to `CC1=Nn2c(nc3sc4c(c3c2=O)CCCC4)SC1`, for which the TGI in experiment [1], in experiment [2], in experiment [3], in experiment [4], in experiment [5] and in [6] was over 100 µM in each case. Besides, the TGI in [7] is over 100 µM; in experiment [8] it was over 100 µM; in experiment [9] it was 53.7 µM; in [10], over 31.6 µM.

For `CC1=C(C#N)S(=O)(=O)c2c(oc(C)c2C)N1`, the TGI in [1], in experiment [2], in experiment [3], in [4], in experiment [5] and in experiment [6] was over 100 µM throughout. Besides, the TGI in experiment [7], in [8], in experiment [9] and in [10] was over 100 µM each time.

For the compound `COC1C(O)=C2C(=O)OC(C)(O)/C=C/C=C\C=C/C=C/C(c3ccccc3)NC(=O)/C=C/C=C/C=C/C=C/C2(C)C1O` (stereo unspecified), the TGI in [1] is 0.248 µM and 0.0594 µM; in [2], 0.156 µM; in experiment [3], 0.0707 µM; in experiment [4], 0.105 µM and 0.0133 µM; in [5] it was 0.0649 µM and 0.0906 µM; in [6] it was 0.168 µM. Besides, the TGI in experiment [7] was 0.00909 µM; in experiment [8], 0.164 µM; in [9], 0.16 µM and 0.234 µM; in [10], 0.141 µM and 0.17 µM. Further, the results for the GI50 in experiment [9] and in experiment [10] were 0.0264 µM and 0.0329 µM, respectively.

Take `CCOC(=O)/C=C(/C(=O)OCC)n1cc(C)c(=O)n(Cc2cnnn2CCCCOC(C)=O)c1=O`: the TGI is over 100 µM in [1]; over 100 µM in [2]; 71.1 µM in experiment [3]; over 100 µM in experiment [4]; over 100 µM in experiment [5]; 24.3 µM in [6]. Further, the TGI in experiment [7] is 20.2 µM; in [8], 83.4 µM; in experiment [9] it was 41 µM; in experiment [10], over 100 µM.

In the case of `CN(C)c1ccc(C(c2ccc(N(C)C)cc2)c2ccc([N+](=O)[O-])cc2)cc1`, the TGI in experiment [1], in experiment [2], in [3], in experiment [4], in experiment [5] and in experiment [6] was over 100 µM each time. The TGI in [7], in experiment [8], in [9] and in experiment [10] was over 100 µM in each case.

For `CN(C)c1ccc(/C=C2\N=C(c3ccccc3)N(c3nc4c(Cl)cc(Cl)cc4s3)C2=O)cc1`, the TGI in experiment [1], in experiment [3], in [4], in [5], in [6] and in [7] was over 100 µM in each case. Besides, the results for the TGI in experiment [8], in experiment [9] and in experiment [10] were over 100 µM, over 100 µM and 56.8 µM, respectively.

Regarding `O=C(O)C(Cc1cccs1)C(=O)O`, the TGI in experiment [1], in experiment [2], in experiment [3], in experiment [4], in experiment [5] and in experiment [6] was over 100 µM each time. Moreover, the TGI in experiment [7], in experiment [8], in [9] and in experiment [10] was over 100 µM in each case.

Turning to `O=[N+]([O-])C(=C(NCc1ccccc1)NCc1ccccc1)C(Cl)=C(Cl)Cl`, the TGI in experiment [1] is over 100 µM; in experiment [2], 90.7 µM; in experiment [3], 92.9 µM; in experiment [4], 81.2 µM; in [5], over 100 µM; in experiment [6], over 100 µM. In addition, the TGI is over 100 µM in experiment [7], 36 µM in experiment [8], 37.8 µM in experiment [9] and 74.7 µM in [10].

As for `Cc1nc2ccccc2n1CCc1nc2ccccc2s1`, the TGI in experiment [1] was over 100 µM; in experiment [2], 42.9 µM; in experiment [3] it was over 100 µM; in experiment [4], over 100 µM; in [5] it was over 100 µM; in experiment [6], over 100 µM. In addition, the TGI in [7] was over 100 µM; in experiment [8], 23.6 µM; in experiment [9], over 100 µM; in [10] it was over 100 µM.

Regarding `CC1CC[C@]2(C(=O)O)CCC3(C)C(=C2[C@H]1C)C=CC1[C@@]2(C)CC[C@H](O)C(C)(C)C2CC[C@]13C` (stereo partly specified), the TGI in [1] was over 100 µM; in experiment [2], over 100 µM; in [3] it was 58.9 µM; in experiment [4], 70 µM; in experiment [5], over 100 µM; in [6] it was over 100 µM. Also, the TGI in experiment [7] was 43.9 µM; in experiment [8], 56.6 µM; in experiment [9], over 100 µM; in experiment [10] it was over 100 µM.

Turning to `S=C1CC(c2ccc(Cl)cc2)Sc2ccccc2N1` (stereo unspecified), the TGI in [1], in [2], in [3], in experiment [4], in [5] and in experiment [6] was over 100 µM throughout. Moreover, the TGI in experiment [8], in experiment [9] and in experiment [10] was over 100 µM each time.

For `Cn1c(N/N=C/c2ccc(Cl)cc2)nc(-c2ccc(Cl)cc2)c(C#N)c1=O`, the TGI in [1] is 61.7 µM; in experiment [3], over 100 µM; in experiment [4], 48.8 µM; in [5], over 100 µM; in experiment [6], 67.5 µM; in [7] it was 57.7 µM. Further, the values for the TGI in [8], in experiment [9] and in [10] were over 100 µM, 57.6 µM and over 100 µM, respectively.

As to `Cc1ccc2[nH]c(=O)c(-c3cnc(=O)[nH]n3)c(O)c2c1`, the TGI in experiment [1], in experiment [2], in experiment [3], in experiment [4], in [5] and in experiment [6] was over 100 µM in each case. In addition, the TGI in experiment [8], in [9] and in [10] was over 100 µM throughout.

With `COc1ccc(-c2cc(-c3ccc(Nc4ccnc5cc(Cl)ccc45)cc3)nc(N)c2C#N)c2ccccc12`, the TGI in experiment [1], in experiment [2], in experiment [3], in experiment [4], in experiment [5] and in [6] was over 100 µM each time. The TGI in [8], in experiment [9] and in [10] was over 100 µM in each case.

For `CN(C)c1ccc(/C=N/NC2=N/C(=C\c3ccco3)C(=O)N2)cc1`, the TGI in experiment [2], in [3], in [4], in [5], in experiment [6] and in [7] was over 100 µM each time. Moreover, the TGI in experiment [8], in experiment [9] and in experiment [10] was over 100 µM in each case.
